Data published in PubChem BioAssay AID1963850 (Molecular Pharmacology Branch, DTP, NCI, 2024).

Test system: 192522-019-R-J2-PDC complex tumor spheroid viability
Assay: Anticancer human tumor 192522-019-R-J2-PDC patient-derived colon adenocarcinoma cell line growth inhibition [POLQ]
Conditions: for IC50: curve of first compound; for viability, T/C: stronger effect = lower value
Outline: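 Complex spheroid viability model combining PDC tumour cells with endothelial (HUVEC) and MSC stromal cells. Novobiocin, ART-558 or RP6685 were tested singly and in combination with standard and investigational anticancer drugs. Each was titrated in half-log steps from near clinical Cmax, or from 10 microM where Cmax was unknown.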
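Also: spheroids exposed to drugs for seven days before reading.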
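For viability, T/C in this document: 100% = DMSO vehicle control viability in luminescence.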

`CC1COCCN1c1cc(-c2ccnn2C)c2ccnc(-c3ccn[nH]3)c2n1` (configuration not stated) + Cc1cccc(N(C)C(=O)C2C(O)CCN2c2nc(C)cc(C(F)(F)F)c2C#N)c1 gave an IC50 (second compound 0.0316 µM) of 0.359 µM, an IC50 (second compound 0.1 µM) of 0.287 µM and an IC50 (second compound 0.316 µM) of 0.397 µM. For the same molecule, the IC50 (second compound 1 µM) was 0.428 µM, the IC50 (second compound 3.16 µM) was 0.402 µM and the IC50 (second compound 10 µM) was 0.373 µM. The viability, T/C (second compound 0.0316 µM, first compound 0.0316 µM) was 101%, the viability, T/C (second compound 0.0316 µM, first compound 0.1 µM) was 73% and the viability, T/C (second compound 0.0316 µM, first compound 0.316 µM) was 55.6%. The viability, T/C (second compound 0.0316 µM, first compound 1 µM) was 32.6%, the viability, T/C (second compound 0.0316 µM, first compound 3.16 µM) was 43.4% and the viability, T/C (second compound 0.0316 µM, first compound 10 µM) was 47.4%. It also gave a viability, T/C (second compound 0.1 µM, first compound 0.0316 µM) of 108%, a viability, T/C (second compound 0.1 µM, first compound 0.1 µM) of 76.8% and a viability, T/C (second compound 0.1 µM, first compound 0.316 µM) of 49.4%. For the same molecule, the viability, T/C (second compound 0.1 µM, first compound 1 µM) was 32.8%, the viability, T/C (second compound 0.1 µM, first compound 3.16 µM) was 42.1% and the viability, T/C (second compound 0.1 µM, first compound 10 µM) was 52.4%. The viability, T/C (second compound 0.316 µM, first compound 0.0316 µM) was 100%, the viability, T/C (second compound 0.316 µM, first compound 0.1 µM) was 77.2% and the viability, T/C (second compound 0.316 µM, first compound 0.316 µM) was 56.5%. It also gave a viability, T/C (second compound 0.316 µM, first compound 1 µM) of 32.5%, a viability, T/C (second compound 0.316 µM, first compound 3.16 µM) of 37.9% and a viability, T/C (second compound 0.316 µM, first compound 10 µM) of 48.8%. For the same molecule, the viability, T/C (second compound 1 µM, first compound 0.0316 µM) was 91.4%, the viability, T/C (second compound 1 µM, first compound 0.1 µM) was 89.2% and the viability, T/C (second compound 1 µM, first compound 0.316 µM) was 53.1%. For the same molecule, the viability, T/C (second compound 1 µM, first compound 1 µM) was 33%, the viability, T/C (second compound 1 µM, first compound 3.16 µM) was 37.7% and the viability, T/C (second compound 1 µM, first compound 10 µM) was 54.1%. It also gave a viability, T/C (second compound 3.16 µM, first compound 0.0316 µM) of 95%, a viability, T/C (second compound 3.16 µM, first compound 0.1 µM) of 84% and a viability, T/C (second compound 3.16 µM, first compound 0.316 µM) of 51.7%. It also gave a viability, T/C (second compound 3.16 µM, first compound 1 µM) of 36.3%, a viability, T/C (second compound 3.16 µM, first compound 3.16 µM) of 44% and a viability, T/C (second compound 3.16 µM, first compound 10 µM) of 57.9%. The viability, T/C (second compound 10 µM, first compound 0.0316 µM) was 94.9%, the viability, T/C (second compound 10 µM, first compound 0.1 µM) was 83.1% and the viability, T/C (second compound 10 µM, first compound 0.316 µM) was 51.9%. The viability, T/C (second compound 10 µM, first compound 1 µM) was 33.8%, the viability, T/C (second compound 10 µM, first compound 3.16 µM) was 44.2% and the viability, T/C (second compound 10 µM, first compound 10 µM) was 56.8%.
